Measured values from patent US20240197700A1, “Methods and Compositions for Treating Lysosomal Storage Disorders” (Sanford Health, priority 2021, published 2024).
“Also recorded” adds a separate entry of the source.

Tested on: Cln3^Δex7/8 mice
Assay: Astroglial activation (GFAP) in brain of Cln3^Δex7/8 mice
Assay type: in vivo, mouse
Method: FIG. 22(A-B). Short-term chronic treatment with semaglutide impacts glial activation in Cln3^Δex7/8 mice. Beginning at wean, wild type and Cln3^Δex7/8 mice were treated with vehicle or semaglutide 2.571 μg/mouse, 25.71 μg/mouse) through subcutaneous injections three times a week until sacrifice at 16 weeks. Upon sacrifice, a hemisphere of the brain was sectioned at 50 microns on a vibratome; DAB staining immunohistochemistry was then performed using anti-GFAP (Dako, Z0334; 1:5000), anti-CD68 (AbD Serotec, MCA1957; 1:2000), anti-rabbit biotinylated (Vector Labs, BA-1000 1:1000), and anti-rat (Vector Labs, BA-9400 1:1000). Sections were imaged and analyzed using an Aperio Digital Pathology Slide Scanner (AT2) and associated software. Images were extracted from S1BF of the somatosensory cortex, the CA3 of the hippocampus, and the VPM/VPL of the thalamus, key brain regions for Batten disease pathology. Percent area of immunoreactivity were quantified using a threshold analysis in ImageJ™. Statistical analyses were performed using GraphPad Prism™ (v8.4.3; San Diego, CA). […] Increasing concentrations of semaglutide and corresponding genotypes are shown along the x-axis. Nested one-way ANOVA. Mean±S.E.M. Sidak's multiple comparisons test. Compared to the wild type vehicle treated group #p<0.05, ##p<0.01, ###p<0.001, ####p<0.0001. Compared to mutant vehicle treated group *p<0.05, **p<0.01, ***p<0.001, ****p<0.0001.
Specific experimental details are included in figure legends. In general, after collection and preparation, MEFs and PNCs were dosed with vehicle or AF38469 (40 nM, 400 nM. or 4 μM) on DIV3 and DIV5. On DIV7, cells were treated with the following dyes: Hoechst 33342 (1:1000 dilution), LysoTrackerT™ Red DND-99 (1:10,000 dilution), fixed, and imaged. Mice were given vehicle or AF38469 (78.125 μg/ml, 3.125 μg/ml, 0.3125 μg/ml or 0.03125 μg/ml equating approximately to 250 μg/mouse/day, 10 μg/mouse/day, 1 μg/mouse/day, and […], respectively, given a mouse's daily water intake of approximately 3.2 ml per day) in drinking water beginning at wean. Body weight was measured bi-weekly, and a force actimeter test was performed on Cln2^R207X mice at 10 weeks of age. Body weight was measured every month for Cln3^Δex7/8 mice. At 11 and 16 weeks of age, respectively, Cln2^R207X and Cln3^Δex7/8 mice along with age matched wild type control mice were CO2 euthanized and intracardially perfused with PBS. Brains were collected and placed on a 1 mm sagittal brain block. Brains were sliced at the midline and 3 mm right of the midline. One hemisphere was fixed in 4% PFA and sectioned at 50 microns on a vibratome. Immunohistochemistry was performed on free-floating sections. For mitochondrial ATP synthase subunit C (SubC), glial fibrillary acidic protein (GFAP), and cluster of differentiation 68 (CD68) immunolabeling, primary antibodies included anti-SubC (Abcam, ab181243; 1:1000), anti-GFAP (Dako, Z0334; 1:5000), anti-CD68 (AbD Serotec, MCA1957; 1:2000), and secondary antibodies included anti-rabbit biotinylated (Vector Labs, BA-1000 1:1000) and anti-rat (Vector Labs, BA-9400 1:1000). Coverslips were mounted on slides using antifade-mounting media and were stored in the dark before imaging. Sections were imaged and analyzed using an Aperio Digital Pathology Slide Scanner (AT2) and associated software. Images were extracted from S1BF of the somatosensory cortex and the VPM/VPL of the thalamus, with multiple images taken of multiple tissues from each animal.
Short-term chronic treatment with AF38469 impacts glial activation in Cln3^Δex7/8 mice. Beginning at wean, wild type and Cln3^Δex7/8 mice were treated with vehicle (0.2408% DMSO) or AF38469 (0.03125 μg/ml, 0.3125 μg/ml, 3.125 μg/ml, 78.125 μg/ml) continuously through the drinking water continuing until sacrifice at 16 weeks. […]

Cc1cccc(NC(=O)c2ccc(C(F)(F)F)cc2C(=O)O)n1 [AF38469, 2-((6-methylpyridin-2-yl)carbamoyl)-5-(trifluoromethyl)benzoic acid]
astroglial activation (GFAP) (0.03125 μg/ml, 0.3125 μg/ml, VPM/VPL of the thalamus): significantly and potently decreased | astroglial activation (GFAP) (0.03125 μg/ml, somatosensory cortex): significantly decreased | astroglial activation (GFAP) (AF38469 higher doses 3.125 μg/ml, 78.125 μg/ml, VPM/VPL of the thalamus and somatosensory cortex): increased or had no impact; also recorded: had no impact | GFAP reactivity (lower doses, somatosensory cortex and the thalamus, summary statement): significantly decreased

semaglutide
astrocytosis (GFAP) (semaglutide 2.571 μg/mouse, 25.71 μg/mouse s.c., S1BF, CA3, VPM/VPL): had no significant effect

CC[C@H](C)[C@H](N)C(=O)NCCN1CCOCC1 [LM11A-31, N-[2-(morpholin-4-yl)ethyl]-L-isoleucinamide]
astroglial activation (GFAP) (LM11A-31 0.6 mg/mL, VPM/VPL of the thalamus and somatosensory cortex): decreasing trend; also recorded: trends towards decreased levels; also recorded: had no significant decrease
